Experimental data taken from US6827926B2, “Metallotetrapyrrolic photosensitizing agents for use in photodynamic therapy” (Miravant Pharmaceuticals, Inc., priority 2001, dated 2004).
Read-outs that look alike come from different tables or passages of the source.

Legend:
[1] = Cardiovascular safety in pig coronary artery models (ECG, HR, BP); assay type: in vivo; conditions: doses exceeding 20 mg/Kg
Method: (§1) Photosensitizers were administered systemically (at doses typically 2-3.5 mg/kg body weight, in a soybean phospholipid formulation) as a slow bolus injection in the ear vein. Drug treatments were followed (1-4 hr later) by endovascular light treatment (50-250 J/cm^2 fluence and 100-300 mW/cm^2 irradiance) in uninjured coronary (50-250 J/cm^2 fluence and 100-300 mW/cm^2 irradiance) and iliac (50-350 J/cm^2 fluence and 100-450 mW/cm^2 irradiance) arteries. In another set of experiments, animals also received balloon injuries in the coronary arteries at the time of PDT treatment. Angioplasty injuries in 2 coronary arteries were performed. Vital signs and cardiovascular parameters such as ECG, HR, BP, were monitored together with arterio-angiograms for measurements of vessel patency.

[2] = tested on: balloon-injured pig coronary arteries; test: Pig coronary artery balloon injury model, 14 days (inhibition of neointima / intimal hyperplasia); assay type: in vivo; conditions: for average inhibition of intimal hyperplasia over the length of the injured artery: pig coronary arteries; for Intimal hyperplasia Inhibition (14 days) Av. over injury: pig coronary artery balloon injury, drug dose 3 mg/Kg, 532 nm light, 55 J, 125 J/cm2, 250 mW
Method: (§2) Those photosensitizers showing excellent efficacy in the rat carotid artery model were evaluated in more detail in the pig coronary artery model (Waksman, R., Rodriguez, J. C., Robinson, K. A., Cipolla, G. D., Crocker, I. R., Scott, N. A. King, S. B., Wilcox, J. N., Circulation, 96, 1944-1952, 1997). If vascular PDT is to be proposed as a therapy to prevent restenosis in humans due to angioplasty or stenting, then it must first be shown to be effective in a large animal model such as the swine. Porcine coronary arteries are very similar to human coronary arteries with regard to size, neointima formation, and thrombosis in response to injury.
The swine model has been utilized in the preclinical evaluation of interventions to reduce restenosis for several reasons. Chief among these reasons are the similarities in (i) size and anatomy of the swine arteries to human arteries, that permits instrumentation and evaluation of results via catheters; and (ii) histopathological characteristics of the proliferative response following artery injury similar to that seen in humans. Furthermore, large animals including the swine have proven to be more predictive of success in reducing restenosis in humans than have small animal models. An extensive literature search (e.g., Weiner, B. H., et al. Circulation. 72:1081-1086,1985; Schwartz, R. S., et al. Circulation. 82:2190-2200, 1990; Vascular Brachytherapy, Veenendaal, The Netherlands:Nucletron B.V. 1996 pp.1-382) supports the notion that restenosis after balloon injury in porcine coronaries is the best model when compared to restenosis in humans. Therapies investigated in other species still must be confirmed in the porcine model. Several articles reviewing the relevant animal models for the study of restenosis have concluded that although imperfect, as are all animal models, the porcine model is still the best from the standpoint of similarity to human disease, ease of use, and cost (e.g., Schwartz, R. S., Murphy, J. G., Edwards, W. D., Camrud, A. R., Vlietstra, R. E., and Holmes, D. R. Restenosis after balloon angioplasty: A practical proliferative model in the porcine coronary arteries. Circulation. 82:2190-2200, 1990; Karas, S. P., Gravanis, M. B., Santoian, E. C., Robinson, K. A., and King, S. B., 3d Coronary intimal proliferation after balloon injury and stenting in swine: an animal model of restenosis. J.Am.Coll. Cardiology 20:467-474, 1992).
as §1
For longer term efficacy experiments (14 days after the PDT experiments) animals were sacrificed and serial sections of all relevant arteries (coronaries only) were harvested in 10% formalin and processed for histological assessment. Representative arterial segments underwent parafin embedding and sectioning for Hemoxylin & Eosin and/or elastin staining. Slides were prepared for microscopy histological analysis of the (i) acute cellular responses and (ii) inhibition of neointima formation following treatment. Once prepared, the slides were analyzed via microscopy for histomorphometry and effects such as medial wall acellularity, arterial wall and surrounding tissue cell death and proliferation. […]

[3] = tested on: normal skin of CD Hairless male rats; assay type: in vivo, rat
How it was run: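 Liposomal egg yolk phospholipid photosensitizer given as single i.v. tail-vein bolus at 1, 1.5 and 2 μmol/kg; skin spots irradiated with 532 nm laser (150 mW/cm^2, 150J, 1 cm) at 1, 6, 24, 48, 96 hrs post injection. Value is time of last observed skin response spot.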

[4] = tested on: uninjured coronary and iliac arteries; test: Pig artery acute PDT experiments in uninjured arteries (acellularity); assay type: in vivo; conditions: 532 nm light, 55 J, 125 J/cm2, 250 mW
Method: as §2, §1
For acute experiments done in uninjured arteries, 3-5 days after the PDT experiments, animals were sacrificed and serial sections of all relevant arteries (iliacs, & coronaries) were harvested in 10% formalin and processed for histological assessment. Results of PDT at this timepoint give us an insight into the selective cellular effects of PDT on VSMC and myofibroblasts which are known to be maximally proliferating and migrating at this same time in response to a vessel wall injury—such as an angioplasty.
For longer term efficacy experiments (14 days after the PDT experiments) animals were sacrificed and serial sections of all relevant arteries (coronaries only) were harvested in 10% formalin and processed for histological assessment. Representative arterial segments underwent parafin embedding and sectioning for Hemoxylin & Eosin and/or elastin staining. Slides were prepared for microscopy histological analysis of the (i) acute cellular responses and (ii) inhibition of neointima formation following treatment. Once prepared, the slides were analyzed via microscopy for histomorphometry and effects such as medial wall acellularity, arterial wall and surrounding tissue cell death and proliferation. […] The magnitude of the inhibition was greater than any other photosensitizer drug currently used by other groups in PDT (clinically or pre-clinically), and was on the order of that only previously seen with radiation in this model. Inhibition data is averaged over the injury length within the artery.

Row | Normal skin Response (1 μmol) ([3]; rat, in vivo) [h] | Molecule | cardiotoxicity in pig coronary artery models [1] | average inhibition of intimal hyperplasia over the length of the injured artery [2] [%] | Intimal hyperplasia Inhibition (14 days) Av. over injury [2] [%] | Normal skin Response (1 μmol) ([3]; Table 3, time of last skin spot observed post injection, 1 μmol, 532 nm laser) [h] | normal skin responses, time post drug injection ([3]; rats, drug dose 1 μmol/Kg) [h] | Acellularity (%) (3 days) ([4]; drug dose 1 mg/Kg) | Acellularity (%) (3 days) ([4]; drug dose 2 mg/Kg) | Acellularity (%) (3 days) ([4]; drug dose 3 mg/Kg) | average inhibition of intimal hyperplasia over the length of the injured artery ([2]; 3 mg/Kg, light fluence 125 J/cm^2) [%]
1 |  | Gallium Chloride Mesoporphyrin Dimethyl Ester [Example 1] | no cardiotoxicity was observed | > 80 | >80 | 48 | 48 | 50 | 70 | 100 | 
2 | 6 | CCC1=C(C)C2=[N+]3C1=Cc1c(C)c(CC)c4[n]1[Ga-2]31([Cl])[n]3c(c(C)c(CCC(=O)NC)c3=CC3=[N+]1C(=C4)C(C)=C3CCC(=O)NC)=C2 [Example 121, Gallium Chloride Mesoporphyrin N-methyl Amide] | no cardiotoxicity was observed |  | >70 |  |  | 45 | 75 | 95 | > 75
3 | 6 | COC(=O)CCC1=C(C)c2cc3[n-]c(cc4nc(cc5[n-]c(cc1n2)c(CCC(=O)OC)c5C)C=C4C)cc3C.[Cl-].[Ga+3] [Example 4, Gallium Chloride Deuteroporphyrin Dimethyl Ester] | no cardiotoxicity was observed | > 75 | >70 |  |  | 50 | 70 | 95 | 
